Literature values as cited in US6562827B1, “Heterocyclically substituted amides used as calpain inhibitors” (Abbott Laboratories, priority 1998, dated 2003).

Columns and labels:
[1] = known calpain inhibitors
calpain [2] = conditions: result in words, from the literature
calpain [3] = conditions: known calpain inhibitors
[4] = test system: tyrosine kinase pp60src cleaved by calpain; conditions: activated platelets; Oda et al. J. Biol. Chem. 1993

cleavage of pp60src [4] | Compound | crossing of cell membranes [1] | calpain inhibition (calpain [2]) | action in cells (calpain [3])
– | CC(C)C[C@H](NC(=O)[C@H]1O[C@@H]1C(=O)O)C(=O)NCCCCN=C(N)N [E 64] | only cross the cell membranes with difficulty | good calpain inhibitors | only a poor action in cells
can be prevented | CCCC[C@@H](C=O)NC(=O)[C@H](CC(C)C)NC(=O)OCc1ccccc1 [calpeptin] | – | – | –
– | CC(=O)N[C@@H](CC(C)C)C(=O)N[C@@H](CC(C)C)C(=O)N[C@H](C=O)CCCNC(=N)N [leupeptin] | only cross the cell membranes with difficulty | good calpain inhibitors | only a poor action in cells
– | Ph—CONH—CH(CH2Ph)—CO—COCOOCH3 | – | only a weak calpain inhibitor | –
